According to ChEMBL document CHEMBL1201862, “PubChem BioAssay data set” (2004):
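These data come from cells grown in 96-well plates and exposed to compound for 48 hours at five concentrations. GI50 = concentration required for 50% inhibition of growth.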 Active and inactive are the calls of the source. No stated cut-off is given here; in the data, active = GI50 up to about 1.1 µM and inactive = higher.

Experiments:
Assay in all cases: inhibition of tumour cell growth, NCI panel, 48 h
HOP-62 = tested on: HOP-62
LOX IMVI = tested on: LOX IMVI
UO-31 = tested on: UO-31
SK-MEL-5 = tested on: SK-MEL-5
NCI/ADR-RES = tested on: NCI/ADR-RES
KM12 = tested on: KM12
RPMI-8226 = tested on: RPMI-8226
SW-620 = tested on: SW-620
HOP-92 = tested on: HOP-92
NCI-H522 = tested on: NCI-H522
PC-3 = tested on: PC-3
MDA-N = tested on: MDA-N
T47D = tested on: T47D
NCI-H23 = tested on: NCI-H23
M14 = tested on: M14
LXFL 529 = tested on: LXFL 529
ACHN = tested on: ACHN
Hs-578T = tested on: Hs-578T
M19-MEL = tested on: M19-MEL
HT-29 = tested on: HT-29

Measured: GI50

COc1ccc(C(=O)/C=C/c2ccc(OCC(=O)N3CCN(c4ccccc4)CC3)cc2)cc1
inactive: HOP-62 39.1 µM | LOX IMVI > 73.6 µM | UO-31 44.2 µM | SK-MEL-5 59.6 µM | NCI/ADR-RES 43.2 µM | KM12 > 76.4 µM | RPMI-8226 > 39.8 µM | SW-620 72.4 µM | HOP-92 14.2 µM | NCI-H522 17.7 µM | PC-3 45.5 µM | MDA-N > 100 µM | T47D 35.6 µM | NCI-H23 38.6 µM | M14 > 100 µM | LXFL 529 > 65.8 µM | ACHN 63.1 µM | Hs-578T > 40.7 µM | M19-MEL > 100 µM | HT-29 > 100 µM
